Patent publication US20220062240A1, “METHODS OF TREATING CANCER USING A CLK INHIBITOR” (BioSplice Therapeutics, Inc., priority 2018, published 2022)
Where two headings read alike, the source gives them in different places.

How the values were obtained:
BT-549 = assay: CellTiter-Glo Viability Assay, breast cancer; type: cell-based; settings: Homo sapiens, BT-549, 96 h
CAMA1 = assay: CellTiter-Glo Viability Assay, breast cancer; type: cell-based; settings: Homo sapiens, CAMA-1, 96 h
DU4475 = assay: CellTiter-Glo Viability Assay, breast cancer; type: cell-based; settings: Homo sapiens, DU-4475, 96 h
HCC1599 = assay: CellTiter-Glo Viability Assay, breast cancer; type: cell-based; settings: Homo sapiens, HCC1599, 96 h
MCF7 = assay: CellTiter-Glo Viability Assay, breast cancer; type: cell-based; settings: Homo sapiens, MCF7, 96 h
MDA-MB-231-Luc = assay: CellTiter-Glo Viability Assay, breast cancer; type: cell-based; settings: Homo sapiens, 96 h
T47D = assay: CellTiter-Glo Viability Assay, breast cancer; type: cell-based; settings: Homo sapiens, 96 h
ZR-75-1 = assay: CellTiter-Glo Viability Assay, breast cancer; type: cell-based; settings: Homo sapiens, ZR-75-1, 96 h
all 50 cell lines = assay: CellTiter-Glo Viability Assay, average across all cell lines; type: cell-based; settings: Homo sapiens, read-out: average EC50 for inhibition of cancer cell proliferation
How it was run: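 Proliferation of a multi-tissue human cancer line panel is assessed over four days at 37° C and 5% CO2, seeding 300-3,000 cells/well. Viability is quantified by CellTiter-Glo luminescence, and EC50 values are calculated.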

[1] = tested on: colorectal cancer (6 cell lines); assay: CellTiter-Glo Viability Assay, colorectal cancer; type: cell-based; settings: Homo sapiens
[2] = tested on: haematopoietic & lymphoid tumors (13 cell lines); assay: CellTiter-Glo Viability Assay, haematopoietic & lymphoid tumors; type: cell-based; settings: Homo sapiens
[3] = tested on: liver cancer (3 cell lines); assay: CellTiter-Glo Viability Assay, liver cancer; type: cell-based; settings: Homo sapiens
[4] = tested on: lung cancer (4 cell lines); assay: CellTiter-Glo Viability Assay, lung cancer; type: cell-based; settings: Homo sapiens
[5] = tested on: ovarian cancer (4 cell lines); assay: CellTiter-Glo Viability Assay, ovarian cancer; type: cell-based; settings: Homo sapiens
[6] = tested on: pancreatic cancer (8 cell lines); assay: CellTiter-Glo Viability Assay, pancreatic cancer; type: cell-based; settings: Homo sapiens
[7] = tested on: prostate cancer (5 cell lines); assay: CellTiter-Glo Viability Assay, prostate cancer; type: cell-based; settings: Homo sapiens
CLK3 = CLK3 (Homo sapiens, UniProt P49761); assay: CLK3 kinase activity assay (Z-lyte, Ser/Thr 18 peptide)
Chain of CLK3 (P49761 whole entry): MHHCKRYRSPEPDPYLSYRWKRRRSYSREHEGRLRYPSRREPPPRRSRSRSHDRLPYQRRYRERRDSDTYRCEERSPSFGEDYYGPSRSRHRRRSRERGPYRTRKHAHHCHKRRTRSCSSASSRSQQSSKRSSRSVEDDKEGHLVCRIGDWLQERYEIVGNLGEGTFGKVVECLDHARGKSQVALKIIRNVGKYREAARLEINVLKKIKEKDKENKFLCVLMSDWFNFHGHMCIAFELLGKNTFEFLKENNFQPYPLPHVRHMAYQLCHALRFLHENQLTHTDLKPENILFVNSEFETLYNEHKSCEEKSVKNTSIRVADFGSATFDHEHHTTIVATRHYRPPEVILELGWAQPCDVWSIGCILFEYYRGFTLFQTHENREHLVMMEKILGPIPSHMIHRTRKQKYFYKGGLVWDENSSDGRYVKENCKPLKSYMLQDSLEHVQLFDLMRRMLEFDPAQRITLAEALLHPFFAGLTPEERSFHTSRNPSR

Compound: CN1CCN(C(=O)C(C)(C)c2ccc(C(=O)Nc3cn4cc(-c5ccncc5)ccc4n3)cc2)CC1 [Compound 27]
- EC50 (BT-549): 3.61 µM
- EC50 (CAMA1): 4.25 µM
- EC50 (DU4475): 1.99 µM
- EC50 (HCC1599): 8.04 µM
- EC50 (MCF7): 3.97 µM
- EC50 (MDA-MB-231-Luc): 3.65 µM
- EC50 (T47D): 4.1 µM
- EC50 (ZR-75-1): 3.91 µM
- EC50 (all 50 cell lines): 2.84 µM
- EC50 ([1]; DLD-1, read-out: Colorectal cancer, EC50 (μM) DLD-1): 1.65 µM
- EC50 ([1]; HCT-116, read-out: Colorectal cancer, EC50 (μM) HCT116): 1.08 µM
- EC50 ([1]; HT-29, read-out: Colorectal cancer, EC50 (μM) HT29): 2.38 µM
- EC50 ([1]; SW48, read-out: Colorectal cancer, EC50 (μM) SW48): 0.675 µM
- EC50 ([1]; SW480, read-out: Colorectal cancer, EC50 (μM) SW480): 1.08 µM
- EC50 ([1]; SW-620, read-out: Colorectal cancer, EC50 (μM) SW620): 0.97 µM
- EC50 ([2]; DND41, read-out: Haematopoietic & Lymphoid tumors, EC50 (μM) DND-41): 1.78 µM
- EC50 ([2]; HL-60, read-out: Haematopoietic & Lymphoid tumors, EC50 (μM) HL-60): 4.98 µM
- EC50 ([2]; JM1, read-out: Haematopoietic & Lymphoid tumors, EC50 (μM) JM1): 0.982 µM
- EC50 ([2]; JeKo-1, read-out: Haematopoietic & Lymphoid tumors, EC50 (μM) JeKo-1): 1.22 µM
- EC50 ([2]; Jurkat, read-out: Haematopoietic & Lymphoid tumors, EC50 (μM) JURKAT, Clone E6-1): 3.85 µM
- EC50 ([2]; Kasumi 1, read-out: Haematopoietic & Lymphoid tumors, EC50 (μM) KASUMI-1): 2.1 µM
- EC50 ([2]; MOLT-4, read-out: Haematopoietic & Lymphoid tumors, EC50 (μM) MOLT-4): 2.39 µM
- EC50 ([2]; MV4-11, read-out: Haematopoietic & Lymphoid tumors, EC50 (μM) MV-4-11): 0.275 µM
- EC50 ([2]; Rec1, read-out: Haematopoietic & Lymphoid tumors, EC50 (μM) REC-1): 1 µM
- EC50 ([2]; SU-DHL-4, read-out: Haematopoietic & Lymphoid tumors, EC50 (μM) SUDHL4): 2.54 µM
- EC50 ([2]; TF-1, read-out: Haematopoietic & Lymphoid tumors, EC50 (μM) TF-1): 3.41 µM
- EC50 ([2]; Toledo, read-out: Haematopoietic & Lymphoid tumors, EC50 (μM) TOLEDO): 1.1 µM
- EC50 ([2]; read-out: Haematopoietic & Lymphoid tumors, EC50 (μM) Loucy): 1.49 µM
- EC50 ([3]; HepG2, read-out: Liver cancer, EC50 HEPG2): 3.34 µM
- EC50 ([3]; PLC-PRF-5, read-out: Liver cancer, EC50 PLC/PRF/5): 4.02 µM
- EC50 ([3]; SNU-398, read-out: Liver cancer, EC50 SNU398): 0.917 µM
- EC50 ([4]; A-427, read-out: Lung cancer, EC50 (μM) A427): 3.08 µM
- EC50 ([4]; HCC78, read-out: Lung cancer, EC50 (μM) HCC-78): 3.72 µM
- EC50 ([4]; NCI-H460, read-out: Lung cancer, EC50 (μM) NCI-H460): 3.54 µM
- EC50 ([4]; NCI-H522, read-out: Lung cancer, EC50 (μM) NCI-H522): 1.99 µM
- EC50 ([5]; OV-90, read-out: Ovarian cancer, EC50 (μM) OV-90): 3.87 µM
- EC50 ([5]; OVCAR-3, read-out: Ovarian cancer, EC50 (μM) OVCAR-3): 1.31 µM
- EC50 ([5]; PA-1, read-out: Ovarian cancer, EC50 (μM) PA1): 1.58 µM
- EC50 ([5]; TOV112D, read-out: Ovarian cancer, EC50 (μM) TOV-112D): 2.32 µM
- EC50 ([6]; BXPC-3, read-out: Pancreatic cancer, EC50 BxPC3): 4.61 µM
- EC50 ([6]; CAPAN-1, read-out: Pancreatic cancer, EC50 Capan1): 3.47 µM
- EC50 ([6]; Capan-2, read-out: Pancreatic cancer, EC50 Capan2): 3.77 µM
- EC50 ([6]; MIA PaCa-2, read-out: Pancreatic cancer, EC50 MIA PaCa-2): 1.44 µM
- EC50 ([6]; PANC-1, read-out: Pancreatic cancer, EC50 PANC-1): 4.64 µM
- EC50 ([6]; Panc 05.04, read-out: Pancreatic cancer, EC50 PANC 05.04): 3.64 µM
- EC50 ([6]; read-out: Pancreatic cancer, EC50 UPAFII): 1.87 µM
- EC50 ([7]; 22Rv1, read-out: Prostate cancer EC50 22Rv1): 2.91 µM
- EC50 ([7]; DU-145, read-out: Prostate cancer EC50 Du-145): 3.39 µM
- EC50 ([7]; LNCaP-Clone-FGC, read-out: Prostate cancer EC50 LNCap clone FGC): 4.18 µM
- EC50 ([7]; PC-3, read-out: Prostate cancer EC50 PC3): 2.58 µM
- EC50 ([7]; VCaP, read-out: Prostate cancer EC50 VCaP (Sigma)): 7.47 µM
- EC50 (CLK3): 0.035 µM
